The results in this text go back to EP0955049B1, “6 Beta-Hydroxy - 6 alpha, 17 alpha - dimethylpregn - 4 - ene - 3,20 - dione, as an inhibitor of smooth muscle proliferation” (Wyeth, priority 1994, dated 1995).

The term pIC50 denotes −log10 of the IC50, conventionally taken in molar units.

For the test, the system named is Primary rat aorta smooth muscle cell cultures. The test can be described thus: smooth muscle cell proliferation ([3H]-thymidine incorporation). The note with it: [3H]-thymidine (0.5 µCi/mL), 24 hours at 37°C, M 199 plus 10% fetal bovine serum, cells per well as percent of control. It counts as cell-based. The source says: This utility was established by subjecting the compound to the following standard experimental test procedure:
Primary rat aorta smooth muscle cell cultures grown in media 199 (Gibco ) plus 10% fetal bovine serum (Gibco) were washed with calcium, magnesium free Dulbecco's phosphate buffered saline and trypsinized for five minutes. Cells were scraped from culture dishes with a rubber policeman and centrifuged. Cells were resuspended in M 199 plus 10% fetal bovine serum containing [^3H)-thymidine (0.5 µCi/mL) at 8-15,000 cells/mL, and were placed into plate wells. The novel intermediate was added to each well and the plates were incubated for 24 hours at 37°C. in a 5% CO2 atmosphere. The cultured cells were treated with trichloracetic acid to remove acid soluble proteins, leaving only cell superstructure and DNA. These cells were solubilized, counted by scintillation and the results compared with control to determine the number of cells per well, the difference in cells being expressed as a percent of control.
For orientation: Uptake of a labelled nucleoside into DNA is a usual measure of proliferation.

pIC50: −log10 of the molar value.

Take `CC(=O)[C@@]1(C)CC[C@H]2[C@@H]3C[C@@](C)(O)C4=CC(=O)CC[C@]4(C)[C@H]3CC[C@@]21C` [6β - Hydroxy - 6α,17α - dimethylpregn - 4 - ene - 3,20 - dione]: the pIC50 is 4.58.
